One molecule from ChEMBL document CHEMBL4184317, “Discovery of Tetrahydroquinoxalines as Bromodomain and Extra-Terminal Domain (BET) Inhibitors with Selectivity for the Second Bromodomain” (J Med Chem, 2018) can be followed below.

Structures are written as SMILES. Values after ≈ are worked out from the molar mass of the structure shown. Bounds are passed on as bounds.

The target in data set [1] is T1, Bromodomain testis-specific protein (Homo sapiens, UniProt Q58F21). Put plainly: Inhibition of BRDT BD1 (unknown origin) after 30 mins by TR-FRET assay. On the technique in general: In TR-FRET formats the signal depends on donor and acceptor labels being close together.
In data set [2] the target is T2, Peregrin (Homo sapiens, UniProt P55201).
T2 sequence (P55201 whole entry): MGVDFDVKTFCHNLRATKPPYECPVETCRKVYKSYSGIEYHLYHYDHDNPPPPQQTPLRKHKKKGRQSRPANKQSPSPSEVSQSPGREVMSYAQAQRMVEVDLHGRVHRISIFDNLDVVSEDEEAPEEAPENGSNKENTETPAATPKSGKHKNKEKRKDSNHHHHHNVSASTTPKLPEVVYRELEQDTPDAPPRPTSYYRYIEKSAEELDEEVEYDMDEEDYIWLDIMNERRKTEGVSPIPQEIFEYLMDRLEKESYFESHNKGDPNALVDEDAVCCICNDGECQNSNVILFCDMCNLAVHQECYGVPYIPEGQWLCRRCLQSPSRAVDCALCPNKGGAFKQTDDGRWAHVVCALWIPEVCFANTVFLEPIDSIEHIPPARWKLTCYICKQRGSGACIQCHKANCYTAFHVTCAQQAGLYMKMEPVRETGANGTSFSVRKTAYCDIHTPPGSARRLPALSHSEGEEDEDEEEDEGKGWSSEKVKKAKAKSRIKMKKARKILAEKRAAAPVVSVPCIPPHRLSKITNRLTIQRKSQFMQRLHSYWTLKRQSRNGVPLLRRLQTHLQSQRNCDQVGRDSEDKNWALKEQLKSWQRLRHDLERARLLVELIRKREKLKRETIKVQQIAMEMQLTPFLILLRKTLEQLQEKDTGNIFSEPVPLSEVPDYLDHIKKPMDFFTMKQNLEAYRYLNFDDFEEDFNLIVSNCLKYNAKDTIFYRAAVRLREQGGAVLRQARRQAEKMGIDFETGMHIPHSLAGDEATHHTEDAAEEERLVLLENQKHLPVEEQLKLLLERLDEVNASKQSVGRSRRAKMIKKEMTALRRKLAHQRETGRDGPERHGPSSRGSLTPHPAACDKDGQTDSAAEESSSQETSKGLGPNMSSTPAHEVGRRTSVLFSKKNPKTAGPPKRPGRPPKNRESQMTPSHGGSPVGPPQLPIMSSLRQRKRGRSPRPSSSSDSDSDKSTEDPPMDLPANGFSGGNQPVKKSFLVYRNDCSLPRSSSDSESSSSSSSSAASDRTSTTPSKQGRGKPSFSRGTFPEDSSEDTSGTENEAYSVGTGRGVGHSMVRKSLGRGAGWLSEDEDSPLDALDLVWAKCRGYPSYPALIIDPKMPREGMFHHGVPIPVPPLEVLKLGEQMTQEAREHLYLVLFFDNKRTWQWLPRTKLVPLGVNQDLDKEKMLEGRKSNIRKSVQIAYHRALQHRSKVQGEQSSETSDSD
Put plainly: Displacement of Alexa 647 ligand from 6H-Flag-Tev-BRPF1 (622 to 738 residues) (unknown origin) expressed in Escherichia coli BL21 (DE3) cells after 30 mins by TR-FRET assay.

A short description of data set [3]: Solubility of the compound in FaSSIF at pH 6.5 after 16 hrs by HPLC method. The class given is physicochemical.
The target in data set [4] is Bromodomain-containing protein 4 (Homo sapiens, UniProt O60885). Put plainly: Binding affinity to human partial length DNA-tagged BRD4 isoform long BD2 expressed in bacterial by BROMOscan method.
The target of data set [5] is Bromodomain-containing protein 2 (Homo sapiens, UniProt P25440). Put plainly: Binding affinity to human partial length DNA-tagged BRD2 isoform 1 BD1 expressed in bacterial by BROMOscan method.
Sequence of Bromodomain-containing protein 2 (P25440 whole entry, canonical isoform): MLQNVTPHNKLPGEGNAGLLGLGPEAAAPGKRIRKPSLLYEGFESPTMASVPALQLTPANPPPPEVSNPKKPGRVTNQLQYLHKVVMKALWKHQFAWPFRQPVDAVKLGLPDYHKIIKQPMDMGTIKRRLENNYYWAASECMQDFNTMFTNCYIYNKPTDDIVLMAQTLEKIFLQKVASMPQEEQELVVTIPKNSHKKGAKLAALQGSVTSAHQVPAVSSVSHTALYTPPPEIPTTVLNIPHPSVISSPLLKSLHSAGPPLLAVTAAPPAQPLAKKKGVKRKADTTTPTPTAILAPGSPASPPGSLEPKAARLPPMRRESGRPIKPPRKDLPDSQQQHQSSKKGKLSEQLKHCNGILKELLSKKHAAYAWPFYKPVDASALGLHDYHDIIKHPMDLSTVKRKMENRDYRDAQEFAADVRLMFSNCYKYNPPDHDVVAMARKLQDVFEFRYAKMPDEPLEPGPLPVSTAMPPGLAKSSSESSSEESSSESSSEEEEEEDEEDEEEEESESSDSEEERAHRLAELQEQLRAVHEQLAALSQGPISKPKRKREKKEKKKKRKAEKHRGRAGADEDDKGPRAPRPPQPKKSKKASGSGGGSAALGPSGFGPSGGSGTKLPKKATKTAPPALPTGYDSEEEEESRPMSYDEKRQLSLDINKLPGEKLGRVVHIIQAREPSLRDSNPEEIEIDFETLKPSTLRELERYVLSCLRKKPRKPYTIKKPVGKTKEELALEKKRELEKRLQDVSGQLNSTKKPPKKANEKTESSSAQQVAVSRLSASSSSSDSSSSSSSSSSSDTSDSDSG
Data set [6] concerns the target T2, Peregrin. Put plainly: Binding affinity to human partial length DNA-tagged BRPF1 expressed in bacterial by BROMOscan method.
Data set [7] addresses Bromodomain and WD repeat-containing protein 1 (Homo sapiens, UniProt Q9NSI6). Put plainly: Binding affinity to human partial length DNA-tagged […] BD2 expressed in bacterial by BROMOscan method.
Data set [8] addresses Histone acetyltransferase p300 (Homo sapiens, UniProt Q09472). Put plainly: Binding affinity to human partial length DNA-tagged EP300 expressed in bacteria by BROMOscan method.
Data set [9] has as its target Nucleosome-remodeling factor subunit BPTF (Homo sapiens, UniProt Q12830). Put plainly: Binding affinity to human partial length DNA-tagged FALZ isoform1 expressed in bacteria by BROMOscan method.
Data set [10] deals with Transcription intermediary factor 1-alpha (Homo sapiens, UniProt O15164). Put plainly: Binding affinity to human partial length DNA-tagged TRIM24(PHD,Bromo.) expressed in bacteria by BROMOscan method.
Data set [11] has as its target E3 ubiquitin-protein ligase TRIM33 (Homo sapiens, UniProt Q9UPN9). Put plainly: Binding affinity to human partial length DNA-tagged TRIM33(PHD,Bromo.) expressed in bacteria by BROMOscan method.
The species entered for a further data set is Homo sapiens. Put plainly: Selectivity ratio of Kd for human partial length DNA-tagged BRPF1 to Kd for human partial length DNA-tagged BRD4 isoform long BD2.
Data set [12] has as its target T1, Bromodomain testis-specific protein. Put plainly: Selectivity ratio of Kd for human partial length DNA-tagged BRDT isoform b BD1 to Kd for human partial length DNA-tagged BRDT isoform b BD2.
A further data set relates to PBMC. Put plainly: cells. To be noted: Homo sapiens, read-out: pIC50 (converted).

Sequence of E3 ubiquitin-protein ligase TRIM33 (Q9UPN9 whole entry, canonical isoform): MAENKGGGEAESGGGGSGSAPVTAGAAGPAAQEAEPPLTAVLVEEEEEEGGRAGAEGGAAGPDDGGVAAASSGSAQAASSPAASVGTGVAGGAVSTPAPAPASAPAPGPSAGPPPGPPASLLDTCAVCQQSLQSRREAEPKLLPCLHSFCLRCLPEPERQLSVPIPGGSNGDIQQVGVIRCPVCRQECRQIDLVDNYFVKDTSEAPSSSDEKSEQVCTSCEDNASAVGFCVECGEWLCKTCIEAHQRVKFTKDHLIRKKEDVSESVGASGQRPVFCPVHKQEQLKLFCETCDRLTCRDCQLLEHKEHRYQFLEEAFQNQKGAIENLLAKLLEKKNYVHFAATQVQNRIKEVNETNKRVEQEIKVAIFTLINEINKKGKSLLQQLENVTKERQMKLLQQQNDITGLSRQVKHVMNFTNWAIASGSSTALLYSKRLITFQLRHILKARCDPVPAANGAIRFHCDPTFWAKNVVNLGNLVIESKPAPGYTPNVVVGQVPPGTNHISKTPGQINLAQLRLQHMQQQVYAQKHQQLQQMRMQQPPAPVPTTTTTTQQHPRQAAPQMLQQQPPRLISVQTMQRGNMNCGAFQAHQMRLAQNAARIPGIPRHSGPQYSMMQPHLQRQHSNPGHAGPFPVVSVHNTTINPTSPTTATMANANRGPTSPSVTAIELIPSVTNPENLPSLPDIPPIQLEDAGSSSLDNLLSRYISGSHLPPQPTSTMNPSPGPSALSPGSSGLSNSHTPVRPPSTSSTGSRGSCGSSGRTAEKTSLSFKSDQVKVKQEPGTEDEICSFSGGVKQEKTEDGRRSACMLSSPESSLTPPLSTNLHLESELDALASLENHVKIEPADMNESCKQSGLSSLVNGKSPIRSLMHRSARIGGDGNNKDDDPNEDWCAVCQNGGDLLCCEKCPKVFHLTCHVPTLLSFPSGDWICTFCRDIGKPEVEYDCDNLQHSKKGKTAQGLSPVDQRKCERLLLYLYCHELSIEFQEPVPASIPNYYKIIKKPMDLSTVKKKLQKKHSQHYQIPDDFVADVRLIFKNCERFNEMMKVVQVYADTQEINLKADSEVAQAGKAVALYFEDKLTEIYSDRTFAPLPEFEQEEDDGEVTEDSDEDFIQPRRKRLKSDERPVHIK
Sequence of Histone acetyltransferase p300 (Q09472 whole entry, canonical isoform): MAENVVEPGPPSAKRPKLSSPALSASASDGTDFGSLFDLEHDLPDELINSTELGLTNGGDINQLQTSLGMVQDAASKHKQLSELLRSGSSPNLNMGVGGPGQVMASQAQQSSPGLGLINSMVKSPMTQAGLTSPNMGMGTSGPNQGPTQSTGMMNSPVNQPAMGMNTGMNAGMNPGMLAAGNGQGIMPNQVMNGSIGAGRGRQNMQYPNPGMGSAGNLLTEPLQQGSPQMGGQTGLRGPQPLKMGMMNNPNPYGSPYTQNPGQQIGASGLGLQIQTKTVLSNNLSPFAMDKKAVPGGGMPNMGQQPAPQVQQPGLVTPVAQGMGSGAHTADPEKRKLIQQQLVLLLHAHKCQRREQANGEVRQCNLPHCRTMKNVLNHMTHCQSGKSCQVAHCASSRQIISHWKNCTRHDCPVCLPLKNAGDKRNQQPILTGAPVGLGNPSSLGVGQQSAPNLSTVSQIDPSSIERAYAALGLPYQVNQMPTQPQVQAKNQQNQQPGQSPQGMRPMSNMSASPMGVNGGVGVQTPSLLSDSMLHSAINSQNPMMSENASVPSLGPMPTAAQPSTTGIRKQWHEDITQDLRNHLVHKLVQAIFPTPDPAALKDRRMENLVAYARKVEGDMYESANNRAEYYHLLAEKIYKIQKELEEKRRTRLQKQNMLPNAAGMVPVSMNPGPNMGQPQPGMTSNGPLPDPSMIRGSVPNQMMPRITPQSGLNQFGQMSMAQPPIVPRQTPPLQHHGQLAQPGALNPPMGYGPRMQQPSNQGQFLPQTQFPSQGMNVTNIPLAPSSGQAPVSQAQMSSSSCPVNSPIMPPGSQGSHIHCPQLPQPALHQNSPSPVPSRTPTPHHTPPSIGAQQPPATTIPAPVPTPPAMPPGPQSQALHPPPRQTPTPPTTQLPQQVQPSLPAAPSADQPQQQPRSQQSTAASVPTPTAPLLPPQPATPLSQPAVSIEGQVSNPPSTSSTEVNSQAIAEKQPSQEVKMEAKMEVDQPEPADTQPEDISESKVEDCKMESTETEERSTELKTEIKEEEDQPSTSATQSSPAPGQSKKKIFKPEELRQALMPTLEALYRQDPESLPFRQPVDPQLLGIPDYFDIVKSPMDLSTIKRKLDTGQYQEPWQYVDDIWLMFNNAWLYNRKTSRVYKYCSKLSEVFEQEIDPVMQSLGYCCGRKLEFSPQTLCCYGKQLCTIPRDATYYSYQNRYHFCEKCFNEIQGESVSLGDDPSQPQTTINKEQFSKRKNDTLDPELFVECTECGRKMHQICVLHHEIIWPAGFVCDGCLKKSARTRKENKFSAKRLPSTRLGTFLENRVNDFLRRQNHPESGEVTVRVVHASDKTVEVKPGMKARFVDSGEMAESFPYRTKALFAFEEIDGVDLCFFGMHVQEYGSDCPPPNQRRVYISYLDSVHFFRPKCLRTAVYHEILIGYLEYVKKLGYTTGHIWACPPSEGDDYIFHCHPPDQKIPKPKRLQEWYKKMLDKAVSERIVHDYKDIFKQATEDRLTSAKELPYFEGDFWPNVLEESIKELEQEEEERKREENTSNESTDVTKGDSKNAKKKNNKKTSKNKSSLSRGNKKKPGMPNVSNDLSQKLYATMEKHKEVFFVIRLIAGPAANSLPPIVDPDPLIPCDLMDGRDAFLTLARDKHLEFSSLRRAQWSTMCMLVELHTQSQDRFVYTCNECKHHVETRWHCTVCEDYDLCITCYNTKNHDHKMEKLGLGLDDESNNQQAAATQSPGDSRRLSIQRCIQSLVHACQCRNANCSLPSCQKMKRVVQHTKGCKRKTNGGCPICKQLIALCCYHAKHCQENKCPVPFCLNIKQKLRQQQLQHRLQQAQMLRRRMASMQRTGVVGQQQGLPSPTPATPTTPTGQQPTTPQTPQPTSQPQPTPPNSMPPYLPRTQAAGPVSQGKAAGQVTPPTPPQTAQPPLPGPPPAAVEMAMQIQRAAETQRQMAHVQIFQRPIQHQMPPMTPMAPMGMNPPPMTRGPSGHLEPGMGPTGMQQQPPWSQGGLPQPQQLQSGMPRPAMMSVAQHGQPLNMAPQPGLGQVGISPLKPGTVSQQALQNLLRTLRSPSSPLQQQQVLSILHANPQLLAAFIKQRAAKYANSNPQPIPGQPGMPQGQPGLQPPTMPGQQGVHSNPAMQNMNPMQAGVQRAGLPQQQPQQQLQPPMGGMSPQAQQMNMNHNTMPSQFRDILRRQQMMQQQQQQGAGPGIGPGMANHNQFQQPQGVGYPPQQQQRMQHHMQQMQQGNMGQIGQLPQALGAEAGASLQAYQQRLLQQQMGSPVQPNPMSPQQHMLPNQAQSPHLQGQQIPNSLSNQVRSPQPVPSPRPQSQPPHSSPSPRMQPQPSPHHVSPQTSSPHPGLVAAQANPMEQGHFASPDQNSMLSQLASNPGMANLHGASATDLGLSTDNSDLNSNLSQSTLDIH
Description for PBMC: Antiinflammatory activity in human PBMC assessed as inhibition of LPS-induced MCP1 release preincubated for 30 mins followed by LPS challenge measured after 24 hrs by immunoassay

Take `CC(=O)N1c2ccc(C3=CCNCC3)cc2N(Cc2ccccc2CO)C[C@@H]1C1CC1`: the IC50 in data set [1] is 1580 nM; on Peregrin [2] it was 20000 nM; in the data set with PBMC, 39.8 nM. Further, the solubility (usually the concentration that dissolves in the medium under given conditions) at 16 h in [3] turned out to be 386 µg/mL (≈ 924 µM). Further, the Kd (in general, the constant that tells how readily two partners part at equilibrium) in [4] is 6.61 nM; in [5] it was 1320 nM; on Peregrin [6], 2450 nM; in data set [7], 15100 nM; in data set [8], above 30200 nM; in [9] it was above 30200 nM. The Kd in data set [10] and in [11] was above 30200 nM in each case. Further, the Selectivity ratio in the data set listed under Homo sapiens is 372; in data set [12] it was 91.
